Consider 2 compounds from paper PMC11174489, “In Vitro Activation of Human Adrenergic Receptors and Trace Amine-Associated Receptor 1 by Phenethylamine Analogues Present in Food Supplements” (Nutrients, 2024).

What all share (format): cell-based
In assay [1] the target is T1, human adrenergic receptor (ADR) α1B (Homo sapiens, UniProt P35368).
T1 construct: host or cells: rat chem-1 cells
T1 sequence (P35368 1-520): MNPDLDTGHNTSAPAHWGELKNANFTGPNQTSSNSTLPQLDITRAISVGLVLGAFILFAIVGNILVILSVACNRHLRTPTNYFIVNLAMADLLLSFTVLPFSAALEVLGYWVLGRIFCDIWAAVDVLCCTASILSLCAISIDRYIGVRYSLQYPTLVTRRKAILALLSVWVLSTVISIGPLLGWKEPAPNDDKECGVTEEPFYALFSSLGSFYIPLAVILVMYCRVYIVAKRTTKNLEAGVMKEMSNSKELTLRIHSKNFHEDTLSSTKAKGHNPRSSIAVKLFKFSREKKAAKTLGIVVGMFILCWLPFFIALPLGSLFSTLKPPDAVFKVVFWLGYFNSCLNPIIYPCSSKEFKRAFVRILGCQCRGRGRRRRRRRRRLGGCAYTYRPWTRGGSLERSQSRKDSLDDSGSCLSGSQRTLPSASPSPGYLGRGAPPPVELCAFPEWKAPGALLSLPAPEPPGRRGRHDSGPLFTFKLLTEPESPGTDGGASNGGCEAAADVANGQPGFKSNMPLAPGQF
The assay is described as follows: ADRα1B activation, Ca2+ influx (Fluo-8) in overexpressing chem-1 cells. From the text:
(§1) Cells overexpressing human ADRs α1A, α1B, α1D, α2A, α2B, β1 and β2 (Eurofins Discovery Services, St. Charles, MO, USA, product numbers: HTS087RTA, HTS158RTA, HTS216RTA, HTS096RTA, HTS157LRTA, HTS104RTA and HTS073RTA, respectively) were used to study the potency (EC50) and efficacy (Emax) of the selected compounds for these receptors by quantifying Ca^2+ influx upon receptor activation. ADRα1A, α1B, α1D, α2A, β1 and β2 were overexpressed in rat chem-1 cells. ADRα2B was overexpressed in HEK293 cells. The cells were seeded (10,000–50,000 cells/well) in a black 96-well plate (VWR International, Leuven, Belgium) and incubated at 37 °C and 5% CO2 for 24 h. After 24 h, the cells were washed with Hank’s balanced salt solution (HBSS) (Gibco, Paisley, UK) containing 0.35 g/L sodium bicarbonate and incubated with 5 µg/mL Fluo-8 AM in HBSS (pH 7.4) supplemented with 2.5 mM probenecid for 1 h. […] Peak tops of the obtained fluorescence response–time curves were corrected for baseline fluorescence and used to construct concentration–response relationships.
(§2) Concentration–response relationships for TAAR1 activation are presented as percentages of the maximal intracellular cAMP level induced by full the TAAR1 agonist phenethylamine and corrected for baseline cAMP accumulation. […] Experiments were run in duplicate in 7–9 independent experiments for ADR and were run in 3–5 independent experiments for TAAR1.

Assay [2] deals with T2, human adrenergic receptor (ADR) α1D (Homo sapiens, UniProt P25100).
T2 construct: host or cells: rat chem-1 cells
T2 sequence (P25100 1-572): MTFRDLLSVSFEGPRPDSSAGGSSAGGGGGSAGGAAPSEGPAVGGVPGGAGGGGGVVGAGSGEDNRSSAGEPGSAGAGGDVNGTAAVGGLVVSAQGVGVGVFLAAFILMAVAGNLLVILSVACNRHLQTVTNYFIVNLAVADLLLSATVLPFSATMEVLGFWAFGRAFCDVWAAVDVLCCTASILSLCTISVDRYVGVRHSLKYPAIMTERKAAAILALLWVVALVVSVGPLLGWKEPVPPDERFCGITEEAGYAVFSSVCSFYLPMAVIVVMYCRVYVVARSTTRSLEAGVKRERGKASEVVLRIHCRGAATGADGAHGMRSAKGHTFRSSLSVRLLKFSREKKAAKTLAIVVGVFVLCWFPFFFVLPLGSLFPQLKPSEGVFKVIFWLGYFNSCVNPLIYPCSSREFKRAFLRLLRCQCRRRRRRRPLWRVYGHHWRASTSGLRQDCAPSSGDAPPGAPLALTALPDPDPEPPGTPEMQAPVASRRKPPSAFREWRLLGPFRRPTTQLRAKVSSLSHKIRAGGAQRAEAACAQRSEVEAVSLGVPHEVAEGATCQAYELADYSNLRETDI
Put plainly: ADRα1D activation, Ca2+ influx (Fluo-8) in overexpressing chem-1 cells.

The target of assay [3] is T3, human adrenergic receptor (ADR) α2A (Homo sapiens, UniProt P08913).
T3 construct: host or cells: rat chem-1 cells
T3 sequence (P08913 1-465): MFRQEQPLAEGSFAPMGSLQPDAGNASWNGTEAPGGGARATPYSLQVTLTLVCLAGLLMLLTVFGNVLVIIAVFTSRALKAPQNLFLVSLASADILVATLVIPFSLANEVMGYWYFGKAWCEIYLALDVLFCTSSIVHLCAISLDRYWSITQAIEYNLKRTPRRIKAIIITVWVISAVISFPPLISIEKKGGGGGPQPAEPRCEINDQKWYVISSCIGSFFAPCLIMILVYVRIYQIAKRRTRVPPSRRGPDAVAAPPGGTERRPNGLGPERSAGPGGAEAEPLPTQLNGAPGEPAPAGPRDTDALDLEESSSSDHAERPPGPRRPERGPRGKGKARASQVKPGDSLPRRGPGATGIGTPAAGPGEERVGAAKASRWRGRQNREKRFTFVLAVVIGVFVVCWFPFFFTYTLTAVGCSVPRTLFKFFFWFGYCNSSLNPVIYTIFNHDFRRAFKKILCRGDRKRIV
Put plainly: ADRα2A activation, Ca2+ influx (Fluo-8) in overexpressing chem-1 cells.

In assay [4] the target is T4, human adrenergic receptor (ADR) β2 (Homo sapiens, UniProt P07550).
T4 construct: host or cells: rat chem-1 cells
The assay is described as follows: ADRβ2 activation, Ca2+ influx (Fluo-8) in overexpressing chem-1 cells.

Assay [5] addresses T5, human adrenergic receptor (ADR) α1A (Homo sapiens, UniProt P35348).
T5 construct: host or cells: rat chem-1 cells
T5 sequence (P35348 1-466): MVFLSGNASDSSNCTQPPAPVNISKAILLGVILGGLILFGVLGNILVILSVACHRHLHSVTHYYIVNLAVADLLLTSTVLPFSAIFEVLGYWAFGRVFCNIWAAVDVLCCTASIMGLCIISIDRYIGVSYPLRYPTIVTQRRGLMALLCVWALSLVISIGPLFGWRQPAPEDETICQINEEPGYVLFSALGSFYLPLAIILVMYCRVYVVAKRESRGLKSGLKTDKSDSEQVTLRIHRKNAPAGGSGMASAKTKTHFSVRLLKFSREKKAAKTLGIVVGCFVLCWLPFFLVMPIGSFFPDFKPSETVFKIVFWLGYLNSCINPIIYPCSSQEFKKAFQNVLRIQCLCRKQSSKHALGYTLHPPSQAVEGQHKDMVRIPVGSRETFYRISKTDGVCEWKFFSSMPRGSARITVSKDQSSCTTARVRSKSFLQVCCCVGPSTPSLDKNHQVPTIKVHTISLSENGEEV
Put plainly: ADRα1A activation, Ca2+ influx (Fluo-8) in overexpressing chem-1 cells. Conditions: Chem-1.

Assay [6] addresses T6, human adrenergic receptor (ADR) β1 (Homo sapiens, UniProt P08588).
T6 construct: host or cells: rat chem-1 cells
The assay is described as follows: ADRβ1 activation, Ca2+ influx (Fluo-8) in overexpressing chem-1 cells. Conditions: Chem-1, read-out: ADRβ1 Emax.
Source text: as §1, §2

[7] abbreviates: % of maximal signal obtained by adrenaline, average (95% CI).
The mark [8] stands for this setting: Ca2+ response, chem-1 cells, average (95% confidence interval), 7–9 experiments.

T6 sequence (P08588 whole entry): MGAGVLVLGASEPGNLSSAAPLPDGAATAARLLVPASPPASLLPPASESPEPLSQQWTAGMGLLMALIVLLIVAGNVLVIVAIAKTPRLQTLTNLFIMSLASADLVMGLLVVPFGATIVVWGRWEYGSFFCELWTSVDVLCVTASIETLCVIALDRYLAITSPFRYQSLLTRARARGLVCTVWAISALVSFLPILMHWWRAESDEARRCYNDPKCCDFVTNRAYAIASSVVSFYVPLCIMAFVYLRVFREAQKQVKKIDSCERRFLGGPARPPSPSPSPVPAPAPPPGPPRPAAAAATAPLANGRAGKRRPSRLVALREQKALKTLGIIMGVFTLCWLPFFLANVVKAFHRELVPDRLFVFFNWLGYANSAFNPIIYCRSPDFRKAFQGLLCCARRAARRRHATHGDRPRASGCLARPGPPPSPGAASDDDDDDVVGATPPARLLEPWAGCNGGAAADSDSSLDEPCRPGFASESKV

As for Methyltyramine, the “ADRα1B Emax” value in assay [1] (setting [7]) is “-”. The EC50 in assay [1] (Ca2+ response, chem-1 cells, average (95% confidence interval), 7–9 experiments, read-out: ADRα1B EC50) was greater than 300 µM; in assay [3] (setting [8]), greater than 300 µM; in assay [4] (setting [8]), greater than 300 µM. The “ADRα1D Emax” value in assay [2] (setting [7]) was “-”. For the same compound, the “ADRβ2 Emax” value in assay [4] (setting [7]) is listed as “-”.

As to `CNC[C@H](O)c1ccc(O)c(O)c1` [Adrenaline, adrenaline, reference compound], the Emax in assay [5] was 98%; in assay [1] (Chem-1, read-out: ADRα1B Emax) it was 99%; in assay [2] (Chem-1), 99%; in assay [3] (Chem-1, % of maximal signal obtained by adrenaline, average (95% CI)), 105%; in assay [6], 99%; in assay [4] (Chem-1), 104%. For the same compound, in assay [2] (setting [8]), the EC50 is 0.0017 µM.

By EC50 is commonly meant the concentration at which the effect is half-maximal. Usually Emax stands for the maximal effect, on the per cent scale that the assay sets.
